Experimental data reported in US8222275B2, “Biarylcarboxyarylamides as vanilloid-1 receptor modulators” (Pharmeste S.R.L., priority 2006, dated 2012).

What was measured:
[1] = biological target: T1, TRPV1 expressed in rat spinal cord (Rattus norvegicus, UniProt O35433); test: Radioligand binding assay, [3H]-RTX, rat spinal cord membranes
T1 construct: TRPV1 expressed in rat spinal cord; from tissue; host or cells: rat (Sprague-Dawley) spinal cord membranes
Experimental: Radioligand Binding Assay
Male Sprague-Dawley rats with body weight between 250 to 350 g at the time for testing were used. For binding assays rats were sacrificed by decapitation under anesthesia and the spinal cord was removed and disrupted using a Polytron tissue homogenizer in ice cold buffer containing 5 mM KCl, 5.8 mM NaCl, 0.75 mM CaCl2, 2 mM MgCl2, 320 mM sucrose, 10 mM Hepes, pH 8.6.^5 The homogenized tissue was centrifuged at 1000×g for 10 min at 4° C. and the supernatant was centrifuged again at 35000×g for 30 min at 4° C. (Beckman Avanti J25). The pellet was resuspended in the same buffer as described above and used in binding experiments. In saturation experiments, 150 μg protein/sample from membrane suspensions were incubated with [^3H]-Resiniferatoxin ([^3H]-RTX) (0.003-3 nM) in the assay buffer containing 0.25 mg/ml fatty acid-free bovine serum albumin at 37° C. for 60 min. […]
Non specific binding was evaluated in the presence of 1 μM RTX. […] The tip of the microcentrifuge tube containing the pellet was cut off and the radioactivity was determined by scintillation counting (Packard 2500 TR). Protein concentration was determined according to a Bio-Rad method with bovine serum albumin as a standard reference (Bradford, 1976). Saturation and competition studies were analyzed with the Ligand program.^6

[2] = biological target: T2, TRPV1 expressing dorsal root ganglia neurons (Rattus norvegicus, UniProt O35433); test: Ca2+ fluorescence measurements in cultured rat dorsal root ganglia neurones; type: cell-based; conditions: 0.1 μM capsaicin, mean and 95% fiducial limits, read-out: IC50 for inhibition of capsaicin-evoked [Ca2+]i mobilization
T2 construct: Dorsal root ganglia were removed and placed in cold phosphate buffered solution; endogenous in cells; host or cells: primary cultured rat dorsal root ganglia neurons
T2 sequence (O35433 whole entry): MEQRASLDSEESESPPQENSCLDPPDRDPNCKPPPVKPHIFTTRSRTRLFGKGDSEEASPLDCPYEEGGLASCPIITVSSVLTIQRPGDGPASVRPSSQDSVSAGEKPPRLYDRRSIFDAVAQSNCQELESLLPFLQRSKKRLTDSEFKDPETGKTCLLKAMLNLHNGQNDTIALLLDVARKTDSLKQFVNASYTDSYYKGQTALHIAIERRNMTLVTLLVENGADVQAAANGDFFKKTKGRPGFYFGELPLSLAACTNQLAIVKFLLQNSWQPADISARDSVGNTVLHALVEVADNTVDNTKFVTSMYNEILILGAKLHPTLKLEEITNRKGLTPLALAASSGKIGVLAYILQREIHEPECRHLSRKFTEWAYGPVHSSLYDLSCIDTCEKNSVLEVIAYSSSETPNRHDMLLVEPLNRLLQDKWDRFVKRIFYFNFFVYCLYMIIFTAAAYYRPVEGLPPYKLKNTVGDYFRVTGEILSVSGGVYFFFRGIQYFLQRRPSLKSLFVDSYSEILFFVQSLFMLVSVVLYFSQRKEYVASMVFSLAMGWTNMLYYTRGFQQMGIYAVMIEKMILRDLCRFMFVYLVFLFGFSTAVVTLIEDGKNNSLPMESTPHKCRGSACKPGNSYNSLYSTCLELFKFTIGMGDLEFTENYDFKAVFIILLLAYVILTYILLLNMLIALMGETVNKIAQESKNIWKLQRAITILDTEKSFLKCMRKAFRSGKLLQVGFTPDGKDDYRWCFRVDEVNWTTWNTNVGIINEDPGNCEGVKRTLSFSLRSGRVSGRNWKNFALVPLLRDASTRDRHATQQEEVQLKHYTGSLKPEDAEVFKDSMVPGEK
Experimental: Ca^2+ Fluorescence Measurements in Cultured Rat Dorsal Root Ganglia Neurones
Adults rats were terminally anaesthetized and decapitated. Dorsal root ganglia were removed and placed in cold phosphate buffered solution (PBS) before being transferred to collagenase (10 mg/ml), trypsin (5 mg/ml) and DNAse (1 mg/ml) for 35 min at 37° C. The ganglia, placed in cold DMEM supplemented with 10% fetal bovine serum, 2 mM L-glutamine, 100 U/ml penicillin and 100 μg/ml streptomycin, were dissociated in single cells by several passages through a series of syringe needles (23 G down to 25 G). The medium and the ganglia were filtered to remove debris, topped up with 8 ml of DMEM medium and centrifuged (200×g for 5 min). The final cell pellet was re-suspended in DMEM medium [supplemented with 100 ng/ml mouse Nerve Growth Factor (mouse-NGF-7S) and cytosine-β-D-arabinofuranoside free base (ARA-C) 2.5 μM]. […] Fura-2-AM-ester was excited at […] to indicate relative [Ca^2+]i changes by the F340/F380 ratio recorded with a dynamic image analysis system (Laboratory Automation 2.0, RCS, Florence, Italy) and the cells were allowed (at least 10 min) to attain a stable fluorescence before beginning the experiment. […]

[3] = system: capsaicin-induced tactile allodynia; test: Capsaicin-induced secondary allodynia in rat; type: in vivo; conditions: 30 μmol/kg oral 2 hours prior to capsaicin (20 nmols/50 μl/paw), evaluated 90 min after challenge
Experimental: Capsaicin-Induced Secondary Allodynia in Rat
Capsaicin (20 nmols/50 μl/paw) was injected in the plantar surface of the glabrous skin of the right paw of rats anesthetized with diethyl ether (Chaplan et al., 1994). Compound V394 was orally administrated (30 μmol/kg) 2 hours prior to capsaicin injection. Tactile allodynia was evaluated 90 min after capsaicin challenge.

T1 sequence (O35433 whole entry): as above

Ki ([1]; [3H]RTX 0.4 nM, 37° C. 60 min, 95% fiducial limits in brackets, read-out: Ki value, competition binding of [3H]-RTX) [pM]	IC50 [2] [pM]	melting point [°C]	SMILES	Kd ([1]; saturation experiments, [3H]-RTX 0.003-3 nM, read-out: KD value, saturation curve of [3H]-RTX) [pM]	preventive effect against the pro-allodinic effect of capsaicin [3] [%]
–	–	–	C=C(C)[C@]12C[C@@H](C)[C@@]34O[C@](Cc5ccccc5)(O[C@@H]1[C@@H]3C=C(COC(=O)Cc1ccc(O)c(OC)c1)C[C@]1(O)C(=O)C(C)=C[C@@H]41)O2 [[^3H]-RTX, [^3H]-Resiniferatoxin, reference compound]	210	–
15000	830	258	O=C(Nc1ccc(Cl)cc1)c1ccc(-c2cccc3cnccc23)nc1 [V394, N-(4-chlorophenyl)-6-(isoquinolin-5-yl)pyridine-3-carboxamide]	–	55
